According to ChEMBL document CHEMBL5131417, “Metabolic installation of macrophage-recruiting glycan ligand on tumor cell surface for in vivo tumor suppression” (Bioorg Med Chem Lett, 2022):
Active and inactive are the calls of the source. The calls are words filed in the database; no cut-off is given here.

Legend:
[1] = Drug distribution in plasma membrane of mouse B16-F10 cells at 100 uM incubated for 24 hrs by confocal microscopy; assay type: ADME, cell membranes; settings: b16-f10, 24 h
[2] = tested on: B16-F10; assay: Antitumor activity against B16-F10 cells implanted in C57BL/6 mouse assessed as reduction in size and number of metastasis in lung at 30 mg/kg, iv dosed every day after tumor transplantation; assay type: functional, organism-based
[3] = tested on: U-87 MG; assay: Drug distribution in plasma membrane of human U87 cells at 100 uM incubated for 24 hrs by confocal microscopy; assay type: ADME, cell-based; settings: u-87mg atcc
[4] = tested on: B16-F10; assay: Antitumor activity against B16-F10 cells implanted in C57BL/6 mouse assessed as reduction in tumor volume at 30 mg/kg, iv dosed on 2nd, 4th, 6th, 8th, 10th, 12th and 14th day post tumor transplantation; assay type: functional; parameters: scale not given: the % may be the effect or the level left; settings: time 14 day
[5] = tested on: B16-F10; assay: Activation of binding of GFP-expressed mouse B16-F10 cells with mouse RAW264.7 cells at 100 uM incubated for 24 hrs by fluorescence microscopy; assay type: functional, cell-based
[6] = Toxicity in mouse B16-F10 cells assessed as effect on cell viability at 0.1 to 100 uM incubated for 24 hrs; assay type: cell-based; settings: b16-f10, 24 h, dose 0.1-100 µM
[7] = Toxicity in C57BL/6 mouse assessed as induction of abnormal death at 300 mg/kg, iv measured up to 100 days after injection; assay type: organism-based; settings: in vivo, 2400 h, time < 100 day

In the case of `CC(=O)N[C@H]1[C@H]([C@H](O)[C@H](O)CNC(=O)c2cc3c(s2)-c2ccccc2OC3)O[C@@](O)(C(=O)O)C[C@@H]1O`, the Drug uptake [1] is reported as “Active”, the Activity [2] is reported as “Active” and the Drug uptake [3] is reported as “Active”. The Activity [4] was 60%, the Activity [5] was “Active” and the Activity [6] was “Non-Toxic”. For the same molecule, the Activity [7] was “Non-Toxic”.
